Results from patent US10842777B2, “Compounds and compositions that bind and stabilize transthyretin and their use for inhibiting transthyretin amyloidosis and protein-protein interactions” (The Board of Trustees of the Leland Stanford Junior …, priority 2012, dated 2020).
“Also recorded” adds a separate entry of the source. Like-named read-outs stand apart in the source and are kept apart here.

Assays:
TTR = biological target: T1, TTR (Homo sapiens, UniProt P02766); assay: Isothermal titration calorimetry (ITC); type: binding; conditions: for Kd: TTR 2 μM titrated with 25 μM compound, PBS pH 7.4, 25° C., two-site negative cooperativity model; for ΔG1 / ΔH1 / ΔG2 / ΔH2: ITC; for ΔG1 / ΔH1: first binding site; for ΔG2 / ΔH2: second binding site
T1 construct: purchased Sigma; host or cells: human plasma

[1] = tested on: Hep3B, Jurkat, MCF7 and HeLa cell lines; assay: Cytotoxicity assay (MTT), panel of four cell lines; type: cell-based; conditions: 1 to 100 μM, 24 h
Protocol: (§1) Cell viability results are reported relative to cells treated with vehicle only (100% cell viability).
(§2) 5×10^3 cells were seeded on 80 μl growth media (except 2.5×10^4 Jurkat cells) in each well in 96-well plates and incubate O/N at 37° C. 20 μl of fresh growth media containing each compound were added into each well to make the final concentration ranging from 1-100 μM. DMSO was used for normalization. Cell titer was tested every 24 h using CellTiter 96 non-radioactive cell proliferation assay kit (Promega, Madison, Wis.) at 560 nm absorbance.

Hep3B cells = assay: Cytotoxicity assay (MTT), Hep3B; type: cell-based, human; conditions: 1 to 100 μM, 24 h
Protocol: as §1, §2

Hela cells = assay: Cytotoxicity assay (MTT), HeLa; type: cell-based; conditions: 1 to 100 μM, 24 h
Protocol: as §1, §2

WT-TTR in human serum [2] = biological target: T2, WT-TTR in human serum (Homo sapiens, UniProt P02766); assay: Serum WT-TTR tetramer stability against acid denaturation; conditions: 10 μM compound, human serum (TTR ~5 μM), pH 4.0, 72 hours
Protocol: Serum samples were incubated in acetate buffer (pH 4.0), with DMSO or 10 μM of test compound, for the desired time period (0 and 72 hours) before cross-linking, SDS-PAGE, and immunoblotting. The density of all TTR bands (TTR tetramer; arrowhead and TTR bound to RBP; solid arrow) was quantified using an Odyssey infrared imaging system (LI-COR Bioscience, Lincoln, Nebr.) and reported as % TTR tetramer=100×[(tetramer & tetramer+RBP density, 72 hrs)/(tetramer & tetramer+RBP density of DMSO, 0 hrs)].
All compounds were 10 mM stock solutions in DMSO and diluted accordingly with DMSO for different assays. 0.5 μl of each compound was added to 24.5 μl of human serum (from human male AB plasma, Sigma) to make the final concentration of 10 μM. The samples were incubated at 37° C. for 2 h, and then 10 μl of the samples were diluted 1:10 with acidification buffer (pH 4.0, 100 mM sodium acetate, 100 mM KCl, 1 mM EDTA, 1 mM DTT). […] All the samples were denatured with adding 100 μl SDS gel loading buffer and boiled for 5 min. […] The normalization was done by dividing each value of the TTR tetramer band intensity by the average of all the values at time 0.
The compounds were tested for their ability to stabilize WT-TTR in human serum (FIG. 5). […] Test compounds (10 μM) were pre-incubated with human serum (TTR ˜5 μM) and the pH was lowered to pH 4.0 to induce aggregation. Aliquots, taken at 0 and 72 hours, were treated with glutaraldehyde to cross-link TTR tetramers that remained intact in the serum sample. SDS-PAGE followed by immunoblot analysis was used to measure the amount of intact TTR tetramer after 72 hours of acid treatment in the presence and absence of test compounds.

WT-TTR in human serum [3] = biological target: T2, WT-TTR in human serum; assay: Serum TTR selectivity assay (covalent probe 6 competition); type: binding; parameters: tissue Sigma-Aldrich; host or cells: human serum (A4: from human male AB plasma); conditions: 10 μM compound, 3.6 μM probe, human serum (TTR ~5 μM), after 6 hours; lower = more selective
Protocol: 98 μL of human serum (Sigma-Aldrich) was mixed with 1 μL of test compounds (1.0 mM stock solution in DMSO, final concentration: 10 μM) and 1 μL of covalent probe 6 (0.36 mM stock solution in DMSO: final concentration: 3.6 μM). The fluorescence changes (λex=328 nm and λem=384 nm) were monitored every 10 min using a microplate spectrophotometer reader (Molecular Devices SpectraMax M5) for 6 h at 25° C.
Covalent probe 6 binds selectively to TTR in serum and covalently modifies K15, creating a fluorescent conjugate. Ligands that bind with high selectivity to TTR in serum decrease covalent probe 6 binding to TTR and therefore lower the fluorescence. All test compounds (10 μM) were incubated with human serum (WT-TTR concentration ˜5 μM) in the presence of covalent probe 6 (3.6 μM) (FIG. 4).

[4] = biological target: T3, V122I-TTR in serum from FAC patients (Homo sapiens, UniProt P02766, V142I); assay: Serum V122I-TTR tetramer stability against acid denaturation; type: biochemical; conditions: 10 μM compound, pH 4.0, 72 hours
T3 construct: stabilization of V122I-TTR in serum from two FAC patients; from tissue; host or cells: serum of two FAC patients carrying V122I

MCF7 cells = assay: Cytotoxicity assay (MTT), MCF7; type: cell-based; conditions: MCF7, 1 to 100 μM, 24 h
Protocol: as §1, §2

[5] = human subjects, 20 mg daily dose; read-out: mean maximum concentration (Cmax) in serum; cited from earlier work

Row | Structure (SMILES) | Kd (TTR; read-out: Kd1) | Kd (TTR; read-out: Kd2) | concentration at which toxicity to certain cell lines is displayed [1] | concentration at which cytotoxicity is shown (Hep3B cells) | concentration at which cytotoxicity is shown (Hela cells) | TTR tetramer stabilization (% TTR tetramer) (WT-TTR in human serum [2]) | covalent probe 6 binding to TTR relative to probe alone (WT-TTR in human serum [3]) | ΔG1 (TTR) | ΔH1 (TTR) | ΔG2 (TTR) | ΔH2 (TTR) | V122I-TTR tetramer stabilized [4] | cytotoxicity towards the cell lines tested [1] | concentration at which cytotoxic effects were observed (MCF7 cells) | Cmax [5]
1 | Cc1n[nH]c(C)c1CCCOc1ccccc1F [Compound A] | 0.058 µM | 0.5 µM | > 25 µM | > 25 µM | > 25 µM | 61.7%+/−2.1 | 59.3±8.7% | – | – | – | – | – | – | – | –
2 | Cc1n[nH]c(C)c1CCCOc1cc(C(=O)O)ccc1F [Compound VIIc, 3-(3-(3,5-Dimethyl-1H-pyrazol-4-yl)propoxy)-4-fluorobenzoic acid] | – | – | – | – | – | 108+/−6% | 3.1±2.9% | ~−11.4 | -56.9 kJ/mol | ~−8.8 | -31.4 kJ/mol | ~100% | not toxic; also recorded: no cytotoxic effects | – | –
3 | O=C(O)c1ccc2nc(-c3cc(Cl)cc(Cl)c3)oc2c1 [tafamidis] | – | – | – | – | – | about 58%+/−3 | – | ~−11.4 | -20.9 kJ/mol | ~−8.8 | -16.3 kJ/mol | – | – | > 50 µM | ~7.4 µM
